Results reported in BindingDB's records for PubMed 10565848 (Washington State University, 1999).
“And” between values parts separate entries of the source, which are not always exact repeats. Equal entries are not always repeated. Where a SMILES comes first, the peptide text is derived from it. [ ]: non-standard residue; d: D form. GABA = NCCCC(=O)O

Biological target: Angiotensin-converting enzyme 2 (Bos taurus, UniProt Q58DD0)
Sequence (Q58DD0 whole entry): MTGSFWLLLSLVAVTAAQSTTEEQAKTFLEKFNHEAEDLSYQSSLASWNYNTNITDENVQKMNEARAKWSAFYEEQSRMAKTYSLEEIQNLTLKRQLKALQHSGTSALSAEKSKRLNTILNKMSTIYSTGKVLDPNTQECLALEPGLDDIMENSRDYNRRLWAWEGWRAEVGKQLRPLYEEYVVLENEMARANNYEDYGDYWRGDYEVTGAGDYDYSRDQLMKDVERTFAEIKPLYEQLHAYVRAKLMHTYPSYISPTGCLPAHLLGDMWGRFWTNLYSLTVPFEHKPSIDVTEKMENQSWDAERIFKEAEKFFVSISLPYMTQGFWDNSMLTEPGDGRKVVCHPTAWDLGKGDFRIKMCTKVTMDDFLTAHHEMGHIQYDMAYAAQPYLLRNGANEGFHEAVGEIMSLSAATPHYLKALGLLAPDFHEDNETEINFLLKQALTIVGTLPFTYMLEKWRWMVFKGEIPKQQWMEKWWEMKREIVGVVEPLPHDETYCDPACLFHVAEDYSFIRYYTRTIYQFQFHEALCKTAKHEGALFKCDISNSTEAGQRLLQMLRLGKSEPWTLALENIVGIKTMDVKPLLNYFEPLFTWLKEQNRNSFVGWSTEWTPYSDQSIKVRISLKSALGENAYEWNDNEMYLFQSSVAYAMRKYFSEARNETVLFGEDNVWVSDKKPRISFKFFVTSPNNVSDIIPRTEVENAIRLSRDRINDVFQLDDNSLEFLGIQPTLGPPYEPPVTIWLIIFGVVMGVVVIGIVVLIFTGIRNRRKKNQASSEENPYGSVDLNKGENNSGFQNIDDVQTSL

| SMILES | Ki |
| --- | --- |
| CC[C@H](C)[C@H](NC(=O)[C@H](Cc1ccc(O)cc1)NC(=O)[C@@H](N)C(C)C)C(=O)O [Ang(3-5)] (H-Val-Tyr-Ile-OH) | 9.91 nM |
| Cc1cc(Cn2cnc3c2C[C@@H](C(=O)O)N(C(=O)C(c2ccccc2)c2ccccc2)C3)ccc1N | > 10000 nM |
| CC[C@H](C)[C@H](NC(=O)[C@H](Cc1ccc(O)cc1)NC(=O)[C@@H](NC(=O)[C@H](CCCNC(=N)N)NC(=O)[C@@H](N)CC(=O)O)C(C)C)C(=O)N[C@@H](Cc1c[nH]cn1)C(=O)N1CCC[C@H]1C(=O)O [Ang(1-7)] | 1000 nM |
| CC[C@H](C)[C@H](NC(=O)[C@H](Cc1ccc(O)cc1)NC(=O)[C@@H](NC(=O)[C@@H](N)CCCN=C(N)N)C(C)C)C(=O)N[C@@H](Cc1c[nH]cn1)C(=O)N1CCC[C@H]1C(=O)N[C@@H](Cc1ccccc1)C(=O)O [CAS_12687-51-3] | 63.2 nM and 36.8 nM |
| CCCCc1nc(Cl)c(CO)n1Cc1ccc(-c2ccccc2-c2nn[nH]n2)cc1 [NSC_3961] | > 10000 nM |
| CC[C@H](C)[C@H](NC(=O)[C@H](Cc1ccc(O)cc1)NC(=O)[C@@H](N)C(C)C)C(=O)N[C@@H](Cc1cnc[nH]1)C(=O)O [Ang(3-6)] (H-VYIH-OH) | 14.4 nM |
| CCCC[C@H](N)C(=O)N[C@H](Cc1ccccc1)C(=O)NCCCCCC(N)=O [NleYI-6-hexamide] | 13.7 nM |
| CC[C@H](C)[C@H](NC(=O)[C@@H](N)Cc1ccc(O)cc1)C(=O)N[C@@H](Cc1cnc[nH]1)C(=O)N1CCC[C@H]1C(=O)N[C@@H](Cc1ccccc1)C(=O)O [Ang(4-8)] (H-YIHPF-OH) | 1000 nM |
| CC(C)[C@H](N)C(=O)N[C@@H](Cc1ccc(O)cc1)C(=O)O [Ang(3-4)] (H-Val-Tyr-OH) | 1000 nM |

Now from value to compound:

| Ki | SMILES |
| --- | --- |
| 117 nM | CC[C@H](C)[C@H](NC(=O)[C@H](Cc1ccc(O)cc1)NC(=O)[C@@H](N)C(C)C)C(=O)N[C@@H](Cc1cnc[nH]1)C(=O)N1CCC[C@H]1C(=O)N[C@@H](Cc1ccccc1)C(=O)N[C@@H](Cc1cnc[nH]1)C(=O)N[C@@H](CC(C)C)C(=O)N[C@H](C(=O)O)C(C)C [Ang(3-11)] (H-VYIHPFHLV-OH) |
| 10.5 nM | CC[C@H](C)[C@H](NC(=O)[C@H](Cc1ccc(O)cc1)NC(=O)[C@@H](N)C(C)C)C(=O)N[C@@H](Cc1cnc[nH]1)C(=O)N1CCC[C@H]1C(=O)O [Ang(3-7)] (H-VYIHP-OH) |
| 8.49 nM and 3.25 nM | CC[C@H](C)[C@H](NC(=O)[C@H](Cc1ccc(O)cc1)NC(=O)CCCN)C(=O)N[C@@H](Cc1cnc[nH]1)C(=O)N1CCC[C@H]1C(=O)N[C@@H](Cc1ccccc1)C(=O)O [Ang IV Nor1] (H-[GABA]YIHPF-OH) |
| 1000 nM | CCC(C)[C@H](NC(=O)[C@@H]1CCCN1C(=O)[C@H](Cc1cnc[nH]1)NC(=O)[C@@H](NC(=O)[C@H](Cc1ccc(O)cc1)NC(=O)[C@@H](NC(=O)[C@H](CCCN=C(N)N)NC(=O)CNC)C(C)C)[C@@H](C)CC)C(=O)O (stereo partly specified) [Ang II Ile8, Sar1] |
| 1000 nM | CC[C@H](C)[C@H](NC(=O)[C@H](Cc1ccc(O)cc1)NC(=O)[C@@H](NC(=O)[C@H](CCCNC(=N)N)NC(=O)[C@@H](N)CC(=O)O)C(C)C)C(=O)N[C@@H](Cc1cnc[nH]1)C(=O)N[C@H](C)C(=O)O [Ang(1-7) D-Ala7] (H-DRVYIH[dA]-OH) |
| 1000 nM | CC[C@H](C)[C@H](NC(=O)[C@H](Cc1ccc(O)cc1)NC(=O)[C@H](N)C(C)C)C(=O)N[C@@H](Cc1cnc[nH]1)C(=O)N1CCC[C@H]1C(=O)N[C@@H](Cc1ccccc1)C(=O)O [Ang IV D-Val1] |
| 33.5 nM | CC[C@H](C)[C@H](NC(=O)[C@H](Cc1ccc(O)cc1)NC(=O)[C@@H](NC(=O)[C@@H](N)CCCN=C(N)N)C(C)C)C(=O)N[C@@H](Cc1cnc[nH]1)C(=O)N1CCC[C@H]1C(=O)O [Ang(2-7)] |
| 411 nM and 581 nM | CC[C@H](C)[C@H](NC(=O)[C@H](Cc1ccc(O)cc1)NC(=O)[C@@H](NC(=O)[C@H](CCCNC(=N)N)NC(=O)[C@@H](N)CC(=O)O)C(C)C)C(=O)N[C@@H](Cc1cnc[nH]1)C(=O)N1CCC[C@H]1C(=O)N[C@@H](Cc1ccccc1)C(=O)O [NSC_439662] |
| 18.8 nM | CC[C@H](C)[C@H](NC(=O)[C@H](Cc1ccc(O)cc1)NC(=O)[C@@H](N)C(C)C)C(=O)N[C@@H](Cc1c[nH]cn1)C(=O)N1CCC[C@H]1C(=O)N[C@@H](Cc1ccccc1)C(=O)N[C@@H](Cc1c[nH]cn1)C(=O)N[C@@H](CC(C)C)C(=O)O [Ang(3-10)] (H-VYIHPFHL-OH) |
| 7.17 nM | CC[C@H](C)[C@H](NC(=O)[C@H](Cc1ccc(O)cc1)NC(=O)[C@@H](N)C(C)C)C(=O)N[C@@H](Cc1c[nH]cn1)C(=O)N1CCC[C@H]1C(=O)N[C@@H](Cc1ccccc1)C(=O)N[C@@H](Cc1c[nH]cn1)C(=O)O [Ang(3-9)] (H-VYIHPFH-OH) |
| 5.54 nM and 3.58 nM | CC[C@H](C)[C@H](NC(=O)[C@H](Cc1ccc(O)cc1)NC(=O)[C@@H](N)C(C)C)C(=O)N[C@@H](Cc1cnc[nH]1)C(=O)N1CCC[C@H]1C(=O)N[C@@H](Cc1ccccc1)C(=O)O |
| 1000 nM | CC[C@H](C)[C@H](NC(=O)[C@H](Cc1ccc(O)cc1)NC(=O)[C@@H](NC(=O)[C@H](CCCN=C(N)N)NC(=O)CNC)C(C)C)C(=O)N[C@@H](Cc1cnc[nH]1)C(=O)N1CCC[C@H]1C(=O)N[C@H](C(=O)O)C(C)O (stereo partly specified) [Ang II Thr8, Sar1] |
